# Test results reported in patent US20240425479A1, “HALO-SUBSTITUTED AMINO AZA-HETEROARYL COMPOUNDS AS INHIBITORS OF THE HAEMATOPOIETIC PROGENITOR KINASE 1 (HPK1)” (priority 2021, published 2024).
# Target: T1, Recombinant (1-346) HPK1 (h) (Homo sapiens, UniProt Q92918)
# T1 construct: Recombinant (1-346) HPK1 (h) is incubated with 8 mM MOPS pH 7.0
# T1 sequence (Q92918 1-346): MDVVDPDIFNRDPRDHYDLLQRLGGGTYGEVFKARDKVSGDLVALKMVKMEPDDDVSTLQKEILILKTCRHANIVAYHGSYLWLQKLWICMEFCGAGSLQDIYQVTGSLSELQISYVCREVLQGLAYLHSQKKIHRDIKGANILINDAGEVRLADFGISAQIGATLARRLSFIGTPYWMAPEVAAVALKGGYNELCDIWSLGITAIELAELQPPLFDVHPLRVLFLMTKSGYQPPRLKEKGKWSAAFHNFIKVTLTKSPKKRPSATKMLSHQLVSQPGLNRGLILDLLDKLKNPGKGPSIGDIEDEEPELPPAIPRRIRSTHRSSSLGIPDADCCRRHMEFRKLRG
# Assay: HPK1 human STE kinase enzymatic radiometric assay
# Assay type: biochemical
# Settings: read-out: HPK1 IC50 nM Range
# Description: (a) HPK1 Human STE Kinase Enzymatic Radiometric Assay
# A stock solution of 10 mM of test compound is prepared in DMSO. The compound plate was prepared by 3-fold and 9-point serial dilutions. Recombinant (1-346) HPK1 (h) is incubated with 8 mM MOPS pH 7.0, 0.2 mM EDTA, 0.33 mg/mL myelin basic protein, 10 mM MgAcetate and [gamma-33P]-ATP (specific activity and concentration as required). The reaction is initiated by the addition of the Mg/ATP mix. After incubation for 40 minutes at RT, the reaction is stopped by the addition of phosphoric acid to a concentration of 0.5%, 10 μL of the reaction is then spotted onto a P30 filtermat and washed four times for 4 minutes in 0.425% phosphoric acid and once in methanol prior to drying and scintillation counting. For more details of kinase assay protocols, see: Gao, Y. et. al.; Biochem J.451 (2): 313-328, 2013.
row,SMILES,IC50 [nM]
1,"Nc1nc(F)c(-c2ccc(N3CCN(C4COC4)CC3)cc2)nc1-c1ccc2c(c1)CCNC2=O [Example I-46, 6-(3-amino-5-fluoro-6-(4-(4-(oxetan-3-yl)piperazin-1-yl)phenyl)pyrazin-2-yl)-3,4-dihydroisoquinolin-1(2H)-one]",0.1 to 10
2,"Cc1c[nH]c(=O)c2ccc(-c3nc(-c4ccc(C5CCOCC5)c(CN5CCCC5)c4)c(F)nc3N)cc12 [Example I-205, 6-(3-amino-5-fluoro-6-(3-(pyrrolidin-1-ylmethyl)-4-(tetrahydro-2H-pyran-4-yl)phenyl)pyrazin-2-yl)-4-methylisoquinolin-1(2H)-one]",0.1 to 10
3,"C[C@H]1CCCN1Cc1cc(-c2nc(-c3ccc4c(c3)C(F)(F)CNC4=O)c(N)nc2F)ccc1C1CCOCC1 [Example I-233, (S)-6-(3-amino-5-fluoro-6-(3-((2-methylpyrrolidin-1-yl)methyl)-4-(tetrahydro-2H-pyran-4-yl)phenyl)pyrazin-2-yl)-4,4-difluoro-3,4-dihydroisoquinolin-1(2H)-one]",0.1 to 10
4,"CO[C@@H]1CCN(Cc2cc(-c3nc(-c4cc(F)c5c(c4)CCNC5=O)c(N)nc3F)ccc2N2CCOCC2)C1 [Example I-155, (R)-6-(3-amino-5-fluoro-6-(3-((3-methoxypyrrolidin-1-yl)methyl)-4-morpholinophenyl)pyrazin-2-yl)-8-fluoro-3,4-dihydroisoquinolin-1(2H)-one]",0.1 to 10
5,"Cc1nc2cc(-c3nc(-c4ccc(N5CC6(CN(C)CCO6)C5)cc4)c(F)nc3N)ccc2c(=O)[nH]1 [Example I-130, 7-(3-amino-5-fluoro-6-(4-(8-methyl-5-oxa-2,8-diazaspiro[3.5]nonan-2-yl)phenyl)pyrazin-2-yl)-2-methylquinazolin-4(3H)-one]",101 to 1000
6,"C[C@@H]1CN(c2ccc(-c3nc(-c4ccc5c(=O)[nH]cc(Cl)c5c4)c(N)nc3F)cc2CN(C)C)C[C@H](C)O1 [Example I-231, 6-(3-amino-6-(3-((dimethylamino)methyl)-4-((2R,6S)-2,6-dimethylmorpholino)phenyl)-5-fluoropyrazin-2-yl)-4-chloroisoquinolin-1(2H)-one]",0.1 to 10
7,"CN(C)Cc1cc(-c2nc(-c3cc(F)c4c(=O)[nH]cc(F)c4c3)c(N)nc2F)ccc1N1CCOCC1 [Example I-120, 6-(3-amino-6-(3-((dimethylamino)methyl)-4-morpholinophenyl)-5-fluoropyrazin-2-yl)-4,8-difluoroisoquinolin-1(2H)-one]",0.1 to 10
8,"Cc1cc2cc(-c3nc(-c4ccc(C5CCOCC5)c(CN(C)C)c4)c(F)nc3N)c(F)cc2c(=O)[nH]1 [Example I-184, 6-(3-amino-6-(3-((dimethylamino)methyl)-4-(tetrahydro-2H-pyran-4-yl)phenyl)-5-fluoropyrazin-2-yl)-7-fluoro-3-methylisoquinolin-1(2H)-one]",0.1 to 10
9,"CN(C)Cc1cc(-c2nc(-c3cc4c(F)c[nH]c(=O)c4cc3F)c(N)nc2F)ccc1C1CCOCC1 [Example I-143, 6-(3-amino-6-(3-((dimethylamino)methyl)-4-(tetrahydro-2H-pyran-4-yl)phenyl)-5-fluoropyrazin-2-yl)-4,7-difluoroisoquinolin-1(2H)-one]",0.1 to 10
10,"Nc1nc(F)c(-c2ccc(N3CCOCC3)c(CN3CCCC3)c2)nc1-c1ccc2c(=O)[nH]ccc2c1 [Example I-114, 6-(3-amino-5-fluoro-6-(4-morpholino-3-(pyrrolidin-1-ylmethyl)phenyl)pyrazin-2-yl)isoquinolin-1(2H)-one]",0.1 to 10
11,"C[C@@H]1CN(c2ccc(-c3nc(-c4ccc5c(=O)[nH]cc(F)c5c4)c(N)nc3F)cc2CN(C)C)C[C@H](C)O1 [Example I-230, 6-(3-amino-6-(3-((dimethylamino)methyl)-4-((2R,6S)-2,6-dimethylmorpholino)phenyl)-5-fluoropyrazin-2-yl)-4-fluoroisoquinolin-1(2H)-one]",0.1 to 10
12,"Nc1nc(F)c(-c2ccc(N3CCN(CCC(F)F)CC3)cc2)nc1-c1ccc2c(=O)[nH]ccc2c1 [Example I-86, 6-(3-amino-6-(4-(4-(3,3-difluoropropyl)piperazin-1-yl)phenyl)-5-fluoropyrazin-2-yl)isoquinolin-1(2H)-one]",11 to 100
13,"Cc1nc2cc(-c3nc(-c4ccc(C5CCOCC5)c(CN5CCC[C@@H]5C)c4)c(F)nc3N)cc(F)c2c(=O)[nH]1 [Example I-219, (S)-7-(3-amino-5-fluoro-6-(3-((2-methylpyrrolidin-1-yl)methyl)-4-(tetrahydro-2H-pyran-4-yl)phenyl)pyrazin-2-yl)-5-fluoro-2-methylquinazolin-4(3H)-one]",101 to 1000
14,"Cc1c[nH]c(=O)c2cc(F)c(-c3nc(-c4ccc(N5CCN(C(C)C)CC5)cc4)c(F)nc3N)cc12 [Example I-234, 6-(3-amino-5-fluoro-6-(4-(4-isopropylpiperazin-1-yl)phenyl)pyrazin-2-yl)-7-fluoro-4-methylisoquinolin-1(2H)-one]",0.1 to 10
15,"CN(C)Cc1cc(-c2nc(-c3cc4c(cc3F)C(=O)NCC4)c(N)nc2F)ccc1OCC1CCOCC1 [Example I-179, 6-(3-amino-6-(3-((dimethylamino)methyl)-4-((tetrahydro-2H-pyran-4-yl)methoxy)phenyl)-5-fluoropyrazin-2-yl)-7-fluoro-3,4-dihydroisoquinolin-1(2H)-one]",0.1 to 10
16,"CN1CCN(c2ccc(-c3nc(-c4cc5c(cc4F)C(=O)NCC5)c(N)nc3F)cc2)CC1 [Example I-54, 6-(3-amino-5-fluoro-6-(4-(4-methylpiperazin-1-yl)phenyl)pyrazin-2-yl)-7-fluoro-3,4-dihydroisoquinolin-1(2H)-one]",0.1 to 10
17,"Cc1cc2cc(-c3nc(-c4ccc(N5CCN(C(C)C)CC5)cc4)c(F)nc3N)c(F)cc2c(=O)[nH]1 [Example I-182, 6-(3-amino-5-fluoro-6-(4-(4-isopropylpiperazin-1-yl)phenyl)pyrazin-2-yl)-7-fluoro-3-methylisoquinolin-1(2H)-one]",0.1 to 10

# Further lines, results first:
row,IC50 [nM],SMILES
1,101 to 1000,"Cc1c[nH]c(=O)c2ccc(-c3nc(-c4cc(CN(C)C)c(N5CCOCC5)cc4F)c(F)nc3N)cc12 [Example I-261, 6-(3-amino-6-(5-((dimethylamino)methyl)-2-fluoro-4-morpholinophenyl)-5-fluoropyrazin-2-yl)-4-methylisoquinolin-1(2H)-one]"
2,11 to 100,"CN(C)Cc1cc(-c2nc(-c3ccc4c(=O)[nH]cc(F)c4c3)c(N)nc2F)ccc1F [Example I-276, 6-(3-amino-6-(3-((dimethylamino)methyl)-4-fluorophenyl)-5-fluoropyrazin-2-yl)-4-fluoroisoquinolin-1(2H)-one]"
3,11 to 100,"CN(C)Cc1cc(-c2nc(-c3ccc4c(=O)[nH]cc(F)c4c3)c(N)nc2F)c(F)cc1N1CCOCC1 [Example I-259, 6-(3-amino-6-(5-((dimethylamino)methyl)-2-fluoro-4-morpholinophenyl)-5-fluoropyrazin-2-yl)-4-fluoroisoquinolin-1(2H)-one]"
4,0.1 to 10,"CN(C)[C@@H]1COc2ccc(-c3nc(-c4ccc5c(c4)C(F)(F)CNC5=O)c(N)nc3F)cc21 [Example I-256, (S)-6-(3-amino-6-(3-(dimethylamino)-2,3-dihydrobenzofuran-5-yl)-5-fluoropyrazin-2-yl)-4,4-difluoro-3,4-dihydroisoquinolin-1(2H)-one]"
5,11 to 100,"Cc1cc(-c2nc(-c3ccc4c(=O)[nH]cc(C)c4c3)c(N)nc2F)cc2c1CCN(C)C2 [Example I-295, 6-(3-amino-6-(2,5-dimethyl-1,2,3,4-tetrahydroisoquinolin-7-yl)-5-fluoropyrazin-2-yl)-4-methylisoquinolin-1(2H)-one]"
6,0.1 to 10,"COc1ccc(-c2nc(-c3cc4c(cc3F)C(=O)NCC4)c(N)nc2F)cc1CN(C)C [Example I-249, 6-(3-amino-6-(3-((dimethylamino)methyl)-4-methoxyphenyl)-5-fluoropyrazin-2-yl)-7-fluoro-3,4-dihydroisoquinolin-1(2H)-one]"
7,101 to 1000,"CC(C)(N)c1cc(-c2nc(-c3ccc4c(c3)CCNC4=O)c(N)nc2F)ccc1F [Example I-271, 6-(3-amino-6-(3-(2-aminopropan-2-yl)-4-fluorophenyl)-5-fluoropyrazin-2-yl)-3,4-dihydroisoquinolin-1(2H)-one]"
8,0.1 to 10,"COc1ccc(-c2nc(-c3ccc4c(=O)[nH]cc(F)c4c3)c(N)nc2F)cc1C(C)N(C)C (centres unmarked) [Example I-291, 6-(3-amino-6-(3-(1-(dimethylamino)ethyl)-4-methoxyphenyl)-5-fluoropyrazin-2-yl)-4-fluoroisoquinolin-1(2H)-one]"
9,0.1 to 10,"CN(C)[C@@H]1COc2ccc(-c3nc(-c4cc(F)c5c(=O)[nH]cc(F)c5c4)c(N)nc3F)cc21 [Example I-253, (S)-6-(3-amino-6-(3-(dimethylamino)-2,3-dihydrobenzofuran-5-yl)-5-fluoropyrazin-2-yl)-4,8-difluoroisoquinolin-1(2H)-one]"
